Data as given in patent publication US7438926B2, “Methods for inhibiting decrease in transdermal drug flux by inhibition of pathway closure” (Alza Corporation, priority 2000, dated 2008).
Where two headings read alike, the source gives them in different places.

What was measured:
pathway closure [1] = experiment: Inhibition of pathway closure by chemicals, methylene blue dye score after microprotrusion array pretreatment; format: in vivo, hairless guinea pigs; conditions: 24 h; for Effect on pathway closure (in words): methylene blue evaluation, Table II; for Score (methylene blue): scale 0 to 5, 0.5 or greater significant
Description: Inhibition of pathway collapse by chemical agents was studied following pretreatment of the skin with a microprotrusion array and application of a formulation containing the agent for 24 h. Quantitation was performed by evaluation of dye impregnation of the pathways.
Application of the microprotrusion array was performed with an impact applicator. […] Following application, the stretching tension was released. […] The guinea pig received a second system containing a different formulation on the opposite site. Twenty four hours after application, three systems from each group were removed and residual formulation washed from the skin. The skin was stained with a 1% methylene blue solution. Excess dye was thoroughly removed with 70% isopropyl alcohol pads and a picture of the site was taken. Pictures were scored on a 0 to 5 scale, 5 being the dye uptake obtained immediately following microprotrusion array application and 0 being the dye uptake obtained after 24 h contact with a control formulation. A score of 0.5 or greater was considered significant. Various osmotic agents, anticoagulants, antiinflammatory agents, gelling agents as well as gels of different pH and various additives were tested (Table II).

pathway closure [2] = conditions: PPS 0.16 mg/mL; 3% citric acid trisodium salt, 50% 1,2,6-hexanetriol or their mixture; 45 min vs 24 h
Description: In all guinea pigs, the skin of one flank was manually stretched bilaterally at the time of the application of the system. Microprotrusion array application was performed with an impact applicator. […] Following application, the stretching tension was released. The adhesive ring was left adhered on the skin and the microprotrusion array was removed. […] Additional groups of HGPs were treated in the same way, except that the formulation contained 3% citric acid trisodium salt or 50% 1,2,6-hexanetriol. At 1 and 24 h after application, 3 systems from each group were removed and residual drug washed from the skin.
(§1) Evaluation was performed at 45 min instead of 1 h. In addition, additional groups of animals received a formulation containing the mixture of 3% citric acid trisodium salt and 50% 1,2,6-hexanetriol.

pathway closure [3] = experiment: Effect of pathway closure inhibitors on passive transdermal PPS flux (Example 3, 545 μm array); format: in vivo, hairless guinea pigs; conditions: for Effect on decrease in PPS flux between 1 and 24 h (in words): 3% citric acid trisodium salt or 50% 1,2,6-hexanetriol in PPS 0.1 mg/mL formulation; for Increase in total amount of PPS transported as compared to controls: 3% citric acid trisodium salt or 50% 1,2,6-hexanetriol
Description: In this experiment, PPS was delivered by passive diffusion through pathways in the skin created by a microprotrusion array. The concentration of PPS was below the concentration required for inhibition of pathway collapse (see Table II). Therefore, at the concentration used in this experiment, PPS behaved like a drug lacking any activity on pathway closure.
Microprotrusion array application was performed with an impact applicator. […] Following application, the stretching tension was released. […] Flux in the presence of 1,2,6-hexanetriol was decreased by less than 2 fold between 1 and 24 h. Total amount transported was increased about 4 and 7 folds in the presence of citric acid and 1,2,6-hexanetriol, respectively, as compared to controls as shown in FIG. 2.

pathway closure [4] = experiment: India ink staining of sites after microprotrusion array pretreatment; format: in vivo, hairless guinea pigs; conditions: sites exposed to the additive for 24 h
[5] = format: in vivo, hairless guinea pigs
[6] = format: in vivo, hairless guinea pigs; conditions: passive, array pretreatment (545 micrometer, 72/cm^2), PPS 0.05 mg/mL, DECAD 12 mg/mL, Inulin 2.5 mg/mL
From the text: Decrease in drug flux has been studied with three model drugs presenting different charge characteristics: pentosan polysulfate (PPS), a highly negatively charged compound, DECAD, a synthetic model decapeptide bearing two positive charges at pH 5.5, and inulin, a neutral polysaccharide.
In this experiment, PPS, DECAD, and inulin were delivered by passive diffusion through pathways in the skin created by pretreatment with a microprotrusion array. Pretreatment involves placing a microprotrusion array onto the skin with sufficient force to create a plurality of microslits/microcuts through the stratum corneum of the skin. The microprotrusion array is then removed from the skin and then some form of agent delivery device or agent reservoir is placed over the pathways in order to effect agent delivery or sampling. Pretreatment was used instead of integrated system because pathway closure appears to occur more rapidly and more reproducibly following pretreatment than when the microprotrusions are left in the skin during drug delivery. The concentration of PPS was below the concentration required for anticoagulant effect. All drugs were dissolved in water and solutions were gelled with 2% hydroxyethylcellulose. […]. PPS and DECAD were radiolabeled with tritium. […] was radiolabeled with ^14C.
Microprotrusion array application was performed with an impact applicator. […]. […]

[7] = design: species or system hairless guinea pigs; conditions: guinea pig, in vivo
Description: Additional experiments were performed with PPS in order to test alternative modes of delivery. […]. By comparison, with the same microprotrusion array and the same PPS concentration, total dose from a transdermal microprotrusion array with integrated drug reservoir and a pretreatment with a microprotrusion array and subsequent application of a drug reservoir was 2.2±0.2 mg and 1.4±0.2 mg, respectively. […]

[8] = in vivo, po, cited from earlier work
pathway closure [9] = conditions: guinea pig, not told
Description: as §1
An additional experiment was performed with PPS. Conditions were identical to that described in Example 4. Gluconic acid sodium salt, glucuronic acid sodium salt and glucose were evaluated at 0.6 M concentration with or without 3% citric acid.

[10] = design: species or system hairless guinea pigs; conditions: guinea pig, in vivo; remark: listed apart in the source
From the text: […]. […] […].

OCCCCC(O)CO (stereo not drawn) [1,2,6-Hexanetriol]
Effect on pathway closure (in words) (pathway closure [1]): most effective agents
Score (methylene blue) (pathway closure [1]; additive concentration 11%): 2.0 ± 0.3
Score (methylene blue) (pathway closure [1]; additive concentration 23%): 3.0 ± 0.5
Score (methylene blue) (pathway closure [1]; additive concentration 50%): 3.8 ± 0.2
Effect on decrease in PPS flux at 24 hours (in words) (pathway closure [2]): inhibited significantly the decrease in flux
Effect on decrease in PPS flux between 1 and 24 h (in words) (pathway closure [3]): inhibited this decrease in flux
Increase in total amount of PPS transported as compared to controls (pathway closure [3]; PPS 0.1 mg/mL): ~7 folds
Decrease in PPS flux between 1 and 24 h in the presence of additive (pathway closure [3]; PPS 0.1 mg/mL, formulation with 50% 1,2,6-hexanetriol): less than 2 fold

OCC(O)CO [Glycerin]
Pathways open for larger sized compounds (India ink staining) (pathway closure [4]): pathways were open for larger sized compounds
Score (methylene blue) (pathway closure [1]; additive concentration 30%): 2.7 ± 0.2
Score (methylene blue) (pathway closure [1]; additive concentration 50%): 3.0 ± 0.2
Score (methylene blue) (pathway closure [1]; additive concentration 70%): 2.7 ± 0.3

O=C(O)CC(O)(CC(=O)O)C(=O)O [citric acid]
Pathways open for larger sized compounds (India ink staining) (pathway closure [4]): pathways were open for larger sized compounds
Effect on pathway closure (in words) (pathway closure [1]): most effective agents in preventing pathway closure
Effect on decrease in PPS flux at 24 hours (in words) (pathway closure [2]): inhibited significantly the decrease in flux
Effect on decrease in PPS flux between 1 and 24 h (in words) (pathway closure [3]): inhibited this decrease in flux
Increase in total amount of PPS transported as compared to controls (pathway closure [3]; PPS 0.1 mg/mL): about 4 folds

inulin
percentage excreted in urine following iv injection ([5]; over two days following injection, previous studies): 94%
Drug Flux ([6]; 1 h): 13.9 ± 1.6 μg/(cm^2h)
Drug Flux ([6]; 24 h): 0.489 ± 0.123 μg/(cm^2h)

pentosan polysulfate [PPS]
percentage excreted in urine following iv injection ([5]; guinea pig, in vivo, iv): 32%
total dose [7]: 2.2 ± 0.2 mg
total dose delivered [7]: 1.9 ± 0.1 mg
Score (methylene blue) (pathway closure [1]; additive concentration 0.01%): 0 ± 0
Score (methylene blue) (pathway closure [1]; additive concentration 5%): 0.5 ± 0.0
bioavailability ([8]; 300 mg): 1-3%
fraction of dose absorbed found intact in urine [8]: less than 5%
Decrease in PPS flux between 1 hour and 24 hours (pathway closure [3]; PPS 0.1 mg/mL, 2% HEC, no anti-healing agent): about 12 fold
Change of PPS flux between 1 hour and 24 hours (in words) (pathway closure [9]): flux decreased dramatically
intact fraction of dose excreted in urine [10]: more than 85%
